Patent publication US8937058B2, “17-hydroxy-19-nor-21-carboxylic acid-steroid γ-lactone derivative, use thereof, and medicament containing the derivative” (priority 2007, dated 2015)
Read-outs that look alike come from different tables or passages of the source.

Tests used:
[1] = biological target: T1, mineralocorticoid receptor (Homo sapiens (Human), UniProt P08235); experiment: Mineralocorticoid receptor binding test (displacement of 3H-aldosterone, cytosol from Hi5 insect cells); conditions: reference substance 3H-aldosterone
T1 sequence (P08235 whole entry): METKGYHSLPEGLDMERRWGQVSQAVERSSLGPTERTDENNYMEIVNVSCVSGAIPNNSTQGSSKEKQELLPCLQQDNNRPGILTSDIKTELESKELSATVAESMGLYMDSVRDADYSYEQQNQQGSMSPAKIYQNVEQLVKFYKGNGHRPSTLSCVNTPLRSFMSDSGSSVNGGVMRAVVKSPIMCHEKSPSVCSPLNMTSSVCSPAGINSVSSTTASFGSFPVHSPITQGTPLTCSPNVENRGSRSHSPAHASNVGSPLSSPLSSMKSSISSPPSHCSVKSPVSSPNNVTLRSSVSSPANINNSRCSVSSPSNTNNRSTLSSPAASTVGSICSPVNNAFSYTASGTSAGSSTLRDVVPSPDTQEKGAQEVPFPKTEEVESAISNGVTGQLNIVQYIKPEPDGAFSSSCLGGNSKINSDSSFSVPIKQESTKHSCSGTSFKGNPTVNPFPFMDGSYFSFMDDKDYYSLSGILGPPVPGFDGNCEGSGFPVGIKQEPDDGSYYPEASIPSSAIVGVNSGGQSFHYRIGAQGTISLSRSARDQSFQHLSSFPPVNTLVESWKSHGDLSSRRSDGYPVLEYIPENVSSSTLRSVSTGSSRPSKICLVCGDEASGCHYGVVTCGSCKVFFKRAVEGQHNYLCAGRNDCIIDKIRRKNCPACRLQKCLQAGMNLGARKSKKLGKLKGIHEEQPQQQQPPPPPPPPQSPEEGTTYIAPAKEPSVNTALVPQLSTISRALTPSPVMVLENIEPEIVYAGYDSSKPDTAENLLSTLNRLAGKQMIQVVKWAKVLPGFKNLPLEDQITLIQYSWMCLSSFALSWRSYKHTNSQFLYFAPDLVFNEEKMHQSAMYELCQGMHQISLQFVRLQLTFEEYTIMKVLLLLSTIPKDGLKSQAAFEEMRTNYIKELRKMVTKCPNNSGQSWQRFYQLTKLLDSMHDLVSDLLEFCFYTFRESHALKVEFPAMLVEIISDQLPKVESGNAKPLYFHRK
Method: 2. Mineralocorticoid Receptor Binding Test:
The test was carried out as in 1., with the following modifications: cytosol from mineralocorticoid receptor-expressing insect cells (Hi5) was used, and the reference substance was ^3H-aldosterone.

androgen receptor [2] = biological target: T2, androgen receptor (Homo sapiens (Human), UniProt P10275); conditions: for IC50: read-out: Androgen receptor IC50, receptor binding, 3H-testosterone displacement; for Androgen receptor Competition factor: reference substance 3H-testosterone
T2 sequence (P10275 whole entry, species assumed): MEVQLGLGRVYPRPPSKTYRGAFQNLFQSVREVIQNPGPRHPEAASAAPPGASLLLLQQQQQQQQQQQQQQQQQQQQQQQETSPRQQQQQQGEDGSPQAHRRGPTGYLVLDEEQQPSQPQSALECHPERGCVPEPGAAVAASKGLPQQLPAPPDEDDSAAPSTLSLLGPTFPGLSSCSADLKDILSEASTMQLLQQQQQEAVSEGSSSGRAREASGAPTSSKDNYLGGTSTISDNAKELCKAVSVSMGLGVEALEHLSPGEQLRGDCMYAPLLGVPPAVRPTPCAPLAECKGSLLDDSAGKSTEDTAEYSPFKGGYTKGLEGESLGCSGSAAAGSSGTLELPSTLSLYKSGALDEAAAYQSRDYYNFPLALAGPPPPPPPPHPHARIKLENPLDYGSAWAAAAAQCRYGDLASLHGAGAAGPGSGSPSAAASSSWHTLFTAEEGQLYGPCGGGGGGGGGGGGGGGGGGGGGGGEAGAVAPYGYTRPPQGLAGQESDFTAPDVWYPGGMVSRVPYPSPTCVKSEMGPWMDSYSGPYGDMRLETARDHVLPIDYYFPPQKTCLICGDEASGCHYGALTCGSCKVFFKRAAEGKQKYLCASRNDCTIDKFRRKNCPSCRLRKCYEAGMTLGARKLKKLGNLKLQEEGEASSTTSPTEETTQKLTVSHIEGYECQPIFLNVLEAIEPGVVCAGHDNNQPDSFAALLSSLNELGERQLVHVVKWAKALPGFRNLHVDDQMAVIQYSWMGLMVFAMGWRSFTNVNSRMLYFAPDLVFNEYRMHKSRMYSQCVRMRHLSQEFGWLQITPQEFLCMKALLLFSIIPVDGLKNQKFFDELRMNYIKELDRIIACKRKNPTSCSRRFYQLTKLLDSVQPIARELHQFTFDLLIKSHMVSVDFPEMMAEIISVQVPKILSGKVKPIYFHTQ
Method: 3. Androgen Receptor Binding Test:
The test was carried out as in 1., with the following modifications: cytosol from androgen receptor-expressing insect cells (Hi5) was used, and the reference substance was ^3H-testosterone.

[3] = biological target: fusion protein from the PR-ligand-binding domain and a Gal4-transactivation domain (Homo sapiens (Human), UniProt P06401); experiment: cell-based; conditions: for Progesterone receptor Agonism efficacy / Progesterone receptor Agonism EC50: in-vitro transactivation, CHO K1 reporter cells; for Progesterone receptor Agonism EC50: 16 hours
Sequence of fusion protein from the PR-ligand-binding domain and a Gal4-transactivation domain (P06401 679-913): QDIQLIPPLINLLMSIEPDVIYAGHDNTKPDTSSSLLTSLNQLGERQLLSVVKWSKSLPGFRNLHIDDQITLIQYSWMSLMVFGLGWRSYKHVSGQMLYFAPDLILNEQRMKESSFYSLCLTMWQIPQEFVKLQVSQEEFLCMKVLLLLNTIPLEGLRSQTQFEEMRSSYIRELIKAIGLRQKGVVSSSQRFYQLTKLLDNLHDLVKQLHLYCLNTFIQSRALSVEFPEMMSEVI
Method: 4. Determination of Progestational Action by Means of Transactivation Tests:
The test compounds were added eight hours later, and the cells were incubated with the compounds for 16 hours. The tests were carried out in triplicate. At the end of incubation the medium containing the effector was removed and replaced with lysis buffer. After luciferase assay substrate (Promega, #E1501) had been added, the 96-well plates were then put in a microplate luminometer (Pherastar, BMG Labtech), and the luminescence was measured. The IC50 values were evaluated using software for calculating dose-effect relations.

[4] = biological target: T1, mineralocorticoid receptor; experiment: Antimineralocorticoid action by transactivation test (MDCK luciferase reporter cells); assay type: cell-based; conditions: in-vitro transactivation, 1 nM aldosterone; for IC50: read-out: Mineralocorticoid receptor Antagonism IC50
Method: 5. Determination of Antimineralocorticoid Action by Means of Transactivation Tests:
The antimineralocorticoid activity of the test substances was determined as for the transactivation tests described above.
The following modifications were undertaken: In this case reporter cell lines were used (MDCK cells) that express the human mineralocorticoid receptor, and transiently contain a reporter construct that contains luciferase under the control of a steroid hormone-responsive promoter.
For determination of antimineralocorticoid efficacy, 1 nM aldosterone (SIGMA A-6628, Lot 22H4033) was added to the cells, to achieve almost maximum stimulation of the reporter gene. Inhibition of the effect indicated a mineralocorticoid-antagonistic action of the substances (Table 2; for comparison, corresponding values for drospirenone (A)).

androgen receptor [5] = biological target: T2, androgen receptor; experiment: cell-based; conditions: for Androgen receptor Agonism efficacy / Androgen receptor Antagonism efficacy: in-vitro transactivation, PC3 cells; for Androgen receptor Antagonism efficacy: 0.05 nM R1881
Method: 6. Determination of Androgenic/Antiandrogenic Action by Means of Transactivation Tests:
The androgenic/antiandrogenic action of the test substances was determined as for the transactivation tests described above.
The following modifications were made: In this case reporter cell lines were used (PC3 cells) that express the androgen receptor, and a reporter construct that contains luciferase under the control of a steroid hormone-responsive promoter.
For determination of the antiandrogenic efficacy, 0.05 nM R1881 was added to the cells, in order to achieve almost maximum stimulation of the reporter gene.

progesterone receptor = progesterone receptor (Homo sapiens (Human), UniProt P06401); conditions: for Progesterone receptor (PR) Competition factor: CF of 1 = affinity of progesterone, CF >1 lower affinity; for CF PR/CF MR: ratio of the competition factors CF(PR) and CF(MR); for IC50: read-out: Progesterone receptor (PR) IC50, receptor binding, 3H-progesterone displacement
Sequence of progesterone receptor (P06401 whole entry, species assumed): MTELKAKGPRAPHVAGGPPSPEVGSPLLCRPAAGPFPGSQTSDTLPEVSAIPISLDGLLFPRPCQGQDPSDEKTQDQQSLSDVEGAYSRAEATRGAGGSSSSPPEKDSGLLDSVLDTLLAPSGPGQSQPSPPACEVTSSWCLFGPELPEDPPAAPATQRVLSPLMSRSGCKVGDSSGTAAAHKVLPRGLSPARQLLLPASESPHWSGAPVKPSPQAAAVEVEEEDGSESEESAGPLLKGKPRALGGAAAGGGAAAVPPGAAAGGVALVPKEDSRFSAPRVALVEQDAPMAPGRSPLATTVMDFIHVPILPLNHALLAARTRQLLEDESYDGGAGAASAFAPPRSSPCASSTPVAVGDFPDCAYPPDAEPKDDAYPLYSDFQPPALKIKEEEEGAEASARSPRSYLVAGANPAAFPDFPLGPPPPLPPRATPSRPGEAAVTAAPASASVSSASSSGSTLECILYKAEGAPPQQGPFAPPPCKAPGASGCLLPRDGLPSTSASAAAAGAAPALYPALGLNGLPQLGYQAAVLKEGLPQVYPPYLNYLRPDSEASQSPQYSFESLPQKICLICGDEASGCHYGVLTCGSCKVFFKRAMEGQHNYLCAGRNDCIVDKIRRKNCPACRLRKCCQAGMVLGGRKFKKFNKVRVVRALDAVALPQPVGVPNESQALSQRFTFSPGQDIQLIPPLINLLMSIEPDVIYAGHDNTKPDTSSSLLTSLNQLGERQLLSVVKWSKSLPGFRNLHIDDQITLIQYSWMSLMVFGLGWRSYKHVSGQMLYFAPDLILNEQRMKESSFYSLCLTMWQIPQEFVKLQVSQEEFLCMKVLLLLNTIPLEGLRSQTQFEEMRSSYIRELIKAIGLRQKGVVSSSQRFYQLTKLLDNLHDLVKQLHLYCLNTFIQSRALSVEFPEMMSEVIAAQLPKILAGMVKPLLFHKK
Method: Progesterone Receptor Binding Test:
Using cytosol from progesterone receptor-expressing insect cells (Hi5), competitive binding to the progesterone receptor was determined from the ability to displace ^3H-progesterone as reference substance from the receptor.

Structure (SMILES) | Mineralocorticoid receptor (MR) Competition factor [1] | IC50 (androgen receptor [2]) | Androgen receptor Competition factor (androgen receptor [2]) | EC50 [3] | Progesterone receptor Agonism efficacy [3] | Mineralocorticoid receptor Antagonism efficacy [4] | IC50 [4] | EC50 (androgen receptor [5]) | IC50 (androgen receptor [5]) | Androgen receptor Agonism efficacy (androgen receptor [5]) | Androgen receptor Antagonism efficacy (androgen receptor [5]) | Progesterone receptor (PR) Competition factor (progesterone receptor) | CF PR/CF MR (progesterone receptor) | IC50 (progesterone receptor) | Progesterone receptor Agonism EC50 [3] | Mineralocorticoid receptor Antagonism IC50 [4]
CC[C@@H]1CC2=CC(=O)CC[C@@H]2[C@H]2CC[C@@]3(C)[C@@H](CC[C@@]34C=CC(=O)O4)[C@H]12 (stereo in doubt) [Example 3A, 17β-Hydroxy-7α-ethyl-19-nor-17α-pregna-4,20(Z)-dien-3-one-21-carboxylic acid γ-lactone] | 8.7 | 89 nM | 2.8 | 780 nM | 16.2% | 55.9% | 360 nM | 25 nM | 11 nM | 30.25% | 41.26% | 54.22 | 6.23 | 1300 nM |  | 
CC[C@@H]1CC2=CC(=O)CC[C@@H]2[C@H]2CC[C@@]3(CC)[C@@H](CC[C@@]34C=CC(=O)O4)[C@H]12 (stereo in doubt) [Example 9A, 17β-Hydroxy-7α-ethyl-18-methyl-19-nor-17α-pregna-4,20(Z)-dien-3-one-21-carboxylic acid γ-lactone] | 1.6 | 76 nM | 2.3 |  |  | 97.6% | 130 nM | 5.1 nM | 1000 nM | 63.33% | 5% | 25.12 | 15.70 | 670 nM | inactive | 
CC[C@]12CC[C@H]3[C@@H](CC4(CC4)C4=CC(=O)CC[C@@H]43)[C@@H]1CC[C@@]21C=CC(=O)O1 [Example 16, 6,6-(1,2-Ethanediyl)-17β-hydroxy-18-methyl-19-nor-17α-pregna-4,20(Z)-dien-3-one-21-carboxylic acid γ-lactone] |  |  |  |  |  | 107.9% | 75 nM | 1.1 nM | 1000 nM | 91.19% | 5% |  |  |  |  | 
C[C@]12CC[C@H]3[C@@H](CC4(CC4)C4=CC(=O)CC[C@@H]43)[C@@H]1CC[C@@]21C=CC(=O)O1 [Example 18, 6,6-(1,2-Ethanediyl)-17β-hydroxy-19-nor-17α-pregna-4,20(Z)-dien-3-one-21-carboxylic acid γ-lactone] |  |  |  |  |  | 89.3% | 520 nM | 3.7 nM | 1000 nM | 87.91% | 5% |  |  |  |  | 
CC[C@]12CC[C@H]3[C@@H](C[C@@H](CO)C4=CC(=O)CC[C@@H]43)[C@@H]1CC[C@@]21C=CC(=O)O1 [Example 15] |  |  |  |  |  |  |  | 1000 nM | 1000 nM | 5% | 5% |  |  |  | inactive | inactive
C[C@@H]1CC2=CC(=O)CC[C@@H]2[C@H]2CC[C@@]3(C)[C@@H](CC[C@@]34C=CC(=O)O4)[C@@H]21 (stereo in doubt) [Example 2A, 17β-Hydroxy-7α-methyl-19-nor-17α-pregna-4,20(Z)-dien-3-one-21-carboxylic acid γ-lactone] | 7.6 |  |  | 220 nM | 44.4% | 129.8% | 180 nM |  |  |  |  | 8.33 |  | 310 nM |  | 
C[C@]12CC[C@H]3[C@@H](C[C@@H](CO)C4=CC(=O)CC[C@@H]43)[C@@H]1CC[C@@]21C=CC(=O)O1 [Example 17, 17β-Hydroxy-6β-hydroxymethylene-19-nor-17α-pregna-4,20(Z)-dien-3-one-21-carboxylic acid γ-lactone] |  |  |  |  |  |  |  |  |  |  |  |  |  |  | inactive | inactive
C[C@]12CCC(=O)C=C1[C@@H]1C[C@@H]1[C@H]1[C@@H]3[C@@H]4C[C@@H]4[C@@]4(CCC(=O)O4)[C@@]3(C)CC[C@@H]12 [A, 6β,7β;15γ,16β-dimethylene-3-oxo-17-pregn-4-ene-21,17β-carbolactone, reference compound] |  |  |  |  | 72.2% | 64.1% |  |  |  |  |  |  |  |  |  | 
C[C@]12CC[C@H]3[C@@H](C=CC4=CC(=O)CC[C@@H]43)[C@@H]1CC[C@@]21C=CC(=O)O1 (stereo in doubt) [Example 1, 17β-Hydroxy-19-nor-17α-pregna-4,6,20(Z)-trien-3-one-21-carboxylic acid γ-lactone] | 33.0 | 10000 nM | 1000.0 |  |  | 93.2% | 870 nM | 130 nM | 1000 nM | 44.27% | 5% |  |  |  |  | 
CC[C@]12CC[C@H]3[C@@H](CCC4=CC(=O)CC[C@@H]43)[C@@H]1CC[C@@]21C=CC(=O)O1 (stereo in doubt) [Example 6, 17β-Hydroxy-18-methyl-19-nor-17α-pregna-4,20(Z)-dien-3-one-21-carboxylic acid γ-lactone] | 2.4 | 28 nM | 3.4 |  |  | 109.6% | 12 nM | 53 nM | 19 nM | 59.8% | 33.8% | 3.07 | 1.28 | 45 nM |  | 
